Measurements published in the supplement of paper PMC10307832.

What was measured:
Experiment in all cases: relative viability (nuclei count vs DMSO), 5 days (fraction); higher = more cells survive
LOU-NH91 = tested on: LOU-NH91
How it was run: (§1)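 Lung cancer cell lines were pin-tool dosed in 1536-well plates on the day after seeding, with either a lone drug or a fixed anchor-drug dose plus five library-drug doses (not always all listed) in √10 steps. Nuclei were counted on 4× images after 5 days. Relative viability is the ratio of treated-well to vehicle-well nuclei counts, with each value a median of duplicate plates.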

NCI-H1975 = tested on: NCI-H1975
How it was run: as §1

NCI-H1666 = tested on: NCI-H1666
How it was run: as §1

HCC-827 = tested on: HCC-827
How it was run: as §1

NCI-H23 = tested on: NCI-H23
How it was run: as §1

NCI-H1563 = tested on: NCI-H1563
How it was run: as §1

NCI-H3122 = tested on: NCI-H3122
How it was run: as §1

LXF-289 = tested on: LXF-289
How it was run: as §1

NCI-H2405 = tested on: NCI-H2405
How it was run: as §1

EPLC-272H = tested on: EPLC-272H
How it was run: as §1

NCI-H2085 = tested on: NCI-H2085
How it was run: as §1

HCC-44 = tested on: HCC-44
How it was run: as §1

LK-2 = tested on: LK-2
How it was run: as §1

SW 1573 = tested on: SW 1573
How it was run: as §1

EMC-BAC-2 = tested on: EMC-BAC-2
How it was run: as §1

HCC-366 = tested on: HCC-366
How it was run: as §1

HCC-78 = tested on: HCC-78
How it was run: as §1

SK-LU-1 = tested on: SK-LU-1
How it was run: as §1

LU99A = tested on: LU99A
How it was run: as §1

RERF-LC-KJ = tested on: RERF-LC-KJ
How it was run: as §1

NCI-H2126 = tested on: NCI-H2126
How it was run: as §1

SMILES: COc1cc(N2CCC(C(N)=O)CC2)ccc1Nc1nc(N)c(Cl)c(Nc2ccccc2S(=O)(=O)C(C)C)n1 [HG-5-88-01] + CS(=O)(=O)CCNCc1ccc(-c2ccc3ncnc(Nc4ccc(OCc5cccc(F)c5)c(Cl)c4)c3c2)o1 [Lapatinib] (partner 2 µM)
- relative viability (LOU-NH91; first compound 0.04 µM): 0.743
- relative viability (LOU-NH91; first compound 0.1265 µM): 0.673
- relative viability (LOU-NH91; first compound 0.4 µM): 0.594
- relative viability (LOU-NH91; first compound 1.265 µM): 0.592
- relative viability (LOU-NH91; first compound 4 µM): 0.608
- relative viability (NCI-H1975; first compound 0.04 µM): 0.896
- relative viability (NCI-H1975; first compound 0.1265 µM): 0.907
- relative viability (NCI-H1975; first compound 0.4 µM): 0.723
- relative viability (NCI-H1975; first compound 1.265 µM): 0.736
- relative viability (NCI-H1975; first compound 4 µM): 0.447
- relative viability (NCI-H1666; first compound 0.04 µM): 0.742
- relative viability (NCI-H1666; first compound 0.1265 µM): 0.742
- relative viability (NCI-H1666; first compound 0.4 µM): 0.5
- relative viability (NCI-H1666; first compound 1.265 µM): 0.463
- relative viability (NCI-H1666; first compound 4 µM): 0.293
- relative viability (HCC-827; first compound 0.04 µM): 0.202
- relative viability (HCC-827; first compound 0.1265 µM): 0.211
- relative viability (HCC-827; first compound 0.4 µM): 0.17
- relative viability (HCC-827; first compound 1.265 µM): 0.197
- relative viability (HCC-827; first compound 4 µM): 0.17
- relative viability (NCI-H23; first compound 0.04 µM): 1.05
- relative viability (NCI-H23; first compound 0.1265 µM): 1.23
- relative viability (NCI-H23; first compound 0.4 µM): 0.874
- relative viability (NCI-H23; first compound 1.265 µM): 1.05
- relative viability (NCI-H23; first compound 4 µM): 0.393
- relative viability (NCI-H1563; first compound 0.04 µM): 0.872
- relative viability (NCI-H1563; first compound 0.1265 µM): 0.941
- relative viability (NCI-H1563; first compound 0.4 µM): 1.03
- relative viability (NCI-H1563; first compound 1.265 µM): 0.882
- relative viability (NCI-H1563; first compound 4 µM): 1.24
- relative viability (NCI-H3122; first compound 0.04 µM): 0.763
- relative viability (NCI-H3122; first compound 0.1265 µM): 0.357
- relative viability (NCI-H3122; first compound 0.4 µM): 0.281
- relative viability (NCI-H3122; first compound 1.265 µM): 0.221
- relative viability (NCI-H3122; first compound 4 µM): 0.2
- relative viability (LXF-289; first compound 0.04 µM): 0.913
- relative viability (LXF-289; first compound 0.1265 µM): 0.904
- relative viability (LXF-289; first compound 0.4 µM): 0.883
- relative viability (LXF-289; first compound 1.265 µM): 0.928
- relative viability (LXF-289; first compound 4 µM): 0.867
- relative viability (NCI-H2405; first compound 0.04 µM): 1.25
- relative viability (NCI-H2405; first compound 0.1265 µM): 1.14
- relative viability (NCI-H2405; first compound 0.4 µM): 0.992
- relative viability (NCI-H2405; first compound 1.265 µM): 0.894
- relative viability (NCI-H2405; first compound 4 µM): 0.865
- relative viability (EPLC-272H; first compound 0.04 µM): 0.871
- relative viability (EPLC-272H; first compound 0.1265 µM): 0.952
- relative viability (EPLC-272H; first compound 0.4 µM): 0.994
- relative viability (EPLC-272H; first compound 1.265 µM): 0.949
- relative viability (EPLC-272H; first compound 4 µM): 0.0809
- relative viability (NCI-H2085; first compound 0.04 µM): 0.718
- relative viability (NCI-H2085; first compound 0.1265 µM): 0.86
- relative viability (NCI-H2085; first compound 0.4 µM): 0.761
- relative viability (NCI-H2085; first compound 1.265 µM): 0.65
- relative viability (NCI-H2085; first compound 4 µM): 0.557
- relative viability (HCC-44; first compound 0.04 µM): 0.978
- relative viability (HCC-44; first compound 0.1265 µM): 0.987
- relative viability (HCC-44; first compound 0.4 µM): 0.845
- relative viability (HCC-44; first compound 1.265 µM): 1.04
- relative viability (HCC-44; first compound 4 µM): 0.669
- relative viability (LK-2; first compound 0.04 µM): 0.94
- relative viability (LK-2; first compound 0.1265 µM): 0.841
- relative viability (LK-2; first compound 0.4 µM): 0.792
- relative viability (LK-2; first compound 1.265 µM): 0.42
- relative viability (LK-2; first compound 4 µM): 0.885
- relative viability (SW 1573; first compound 0.04 µM): 1.12
- relative viability (SW 1573; first compound 0.1265 µM): 0.86
- relative viability (SW 1573; first compound 0.4 µM): 0.989
- relative viability (SW 1573; first compound 1.265 µM): 1.06
- relative viability (SW 1573; first compound 4 µM): 1.04
- relative viability (EMC-BAC-2; first compound 0.04 µM): 0.928
- relative viability (EMC-BAC-2; first compound 0.1265 µM): 0.93
- relative viability (EMC-BAC-2; first compound 0.4 µM): 0.802
- relative viability (EMC-BAC-2; first compound 1.265 µM): 0.906
- relative viability (EMC-BAC-2; first compound 4 µM): 0.684
- relative viability (HCC-366; first compound 0.04 µM): 1.04
- relative viability (HCC-366; first compound 0.1265 µM): 1.04
- relative viability (HCC-366; first compound 0.4 µM): 0.863
- relative viability (HCC-366; first compound 1.265 µM): 1.08
- relative viability (HCC-366; first compound 4 µM): 1.29
- relative viability (HCC-78; first compound 0.04 µM): 0.737
- relative viability (HCC-78; first compound 0.1265 µM): 0.465
- relative viability (HCC-78; first compound 0.4 µM): 0.223
- relative viability (HCC-78; first compound 1.265 µM): 0.264
- relative viability (HCC-78; first compound 4 µM): 0.226
- relative viability (SK-LU-1; first compound 0.04 µM): 0.947
- relative viability (SK-LU-1; first compound 0.1265 µM): 0.855
- relative viability (SK-LU-1; first compound 0.4 µM): 0.787
- relative viability (SK-LU-1; first compound 1.265 µM): 0.611
- relative viability (SK-LU-1; first compound 4 µM): 0.737
- relative viability (LU99A; first compound 0.04 µM): 1.03
- relative viability (LU99A; first compound 0.1265 µM): 1.02
- relative viability (LU99A; first compound 0.4 µM): 1
- relative viability (LU99A; first compound 1.265 µM): 0.988
- relative viability (LU99A; first compound 4 µM): 0.721
- relative viability (RERF-LC-KJ; first compound 0.04 µM): 0.833
- relative viability (RERF-LC-KJ; first compound 0.1265 µM): 0.774
- relative viability (RERF-LC-KJ; first compound 0.4 µM): 0.826
- relative viability (RERF-LC-KJ; first compound 1.265 µM): 0.876
- relative viability (RERF-LC-KJ; first compound 4 µM): 0.839
- relative viability (NCI-H2126; first compound 0.04 µM): 0.649
- relative viability (NCI-H2126; first compound 0.1265 µM): 0.712
- relative viability (NCI-H2126; first compound 0.4 µM): 0.706
- relative viability (NCI-H2126; first compound 1.265 µM): 0.726
- relative viability (NCI-H2126; first compound 4 µM): 0.45
